Legend:
BRD4 (BDI_K57-E168) = target: T1, BRD4 (BDI_K57-E168) (Homo sapiens, UniProt O60885); assay: TR-FRET bromodomain binding assay, first bromodomain of BRD4; settings: TR-FRET assay protocol G (compound 0.92 μM-15 pM); 100 nM probe
T1 construct: BD1: amino acids K57-E168; made in house
In short: (§1)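 Displacement of a fluorescent Alexa647 BET-inhibitor probe (100 nM with BDI, 30 nM with BDII) from His-tagged BRD4 bromodomains was monitored by europium TR-FRET after one hour at room temperature. Data were normalized to no-compound and 1 μM unlabelled probe controls, fitted with a four-parameter logistic, and IC50s converted to Ki.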

BRD4 (BDII_E352-M457) = target: T2, BRD4 (BDII_E352-M457) (Homo sapiens, UniProt O60885); assay: TR-FRET bromodomain binding assay, second bromodomain of BRD4; settings: TR-FRET assay protocol G (compound 0.92 μM-15 pM); 30 nM probe
T2 construct: protocol; made in house
In short: as §1

[1] = tested on: breast cancer cell line MX-1; assay: MX-1 cell line proliferation assay; assay type: cell-based; settings: MX-1 cells, 3-day proliferation assay, Cell Titer Glo; read-out: Cellular proliferation: EC50
In short: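 EC50 comes from sigmoidal fits of Cell Titer Glo luminescence relative to DMSO controls, with assay MSR 2.1. Ten-point 3-fold dilutions (top 3 or 1 μM final) were added to MX-1 breast cancer cells after overnight adhesion. Cells were at 5000/well and proliferation ran 3 days.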

SMILES	Ki (BRD4 (BDI_K57-E168)) [nM]	Ki (BRD4 (BDII_E352-M457)) [nM]	EC50 [1] [nM]
Cn1cc2c3c(c[nH]c3c1=O)C(CCCCCCO)N(c1ccc(F)cc1F)c1ccc(CS(C)(=O)=O)cc1-2 (stereo not drawn) [Example 136, 4-(2,4-difluorophenyl)-3-(6-hydroxyhexyl)-10-methyl-7-((methylsulfonyl)methyl)-3,4-dihydro-1H-1,4,10-triazadibenzo[cd,f]azulen-11(10H)-one]	13.2	1.33	49.2
Cn1cc2c3c(c[nH]c3c1=O)C(CNC(=O)c1ccccc1)N(c1ccc(F)cc1F)c1ccc(CS(C)(=O)=O)cc1-2 (stereo not drawn) [Example 137, N-((4-(2,4-difluorophenyl)-10-methyl-7-((methylsulfonyl)methyl)-11-oxo-3,4,10,11-tetrahydro-1H-1,4,10-triazadibenzo[cd,f]azulen-3-yl)methyl)benzamide]	51.7	3.87	240
Cn1cc2c3c(c[nH]c3c1=O)C(CNC(=O)CN)N(c1ccc(F)cc1F)c1ccc(CS(C)(=O)=O)cc1-2 (stereo not drawn) [Example 139, 2-amino-N-((4-(2,4-difluorophenyl)-10-methyl-7-((methylsulfonyl)methyl)-11-oxo-3,4,10,11-tetrahydro-1H-1,4,10-triazadibenzo[cd,f]azulen-3-yl)methyl)acetamide]	17.5	2.33	627
Cn1cc2c3c(c[nH]c3c1=O)C(CCCOc1ccccc1)N(c1ccc(F)cc1F)c1ccc(CS(C)(=O)=O)cc1-2 (stereo not drawn) [Example 143, 4-(2,4-difluorophenyl)-10-methyl-7-((methylsulfonyl)methyl)-3-(3-phenoxypropyl)-3,4-dihydro-1H-1,4,10-triazadibenzo[cd,f]azulen-11(10H)-one]	54.9	3.06	175
Cn1cc2c3c(c[nH]c3c1=O)C(CCCOc1ccccc1)N(c1ccc(F)cc1F)c1ccc(CS(C)(=O)=O)cc1-2 [Example 145, (R)-4-(2,4-difluorophenyl)-10-methyl-7-((methylsulfonyl)methyl)-3-(3-phenoxypropyl)-3,4-dihydro-1H-1,4,10-triazadibenzo[cd,f]azulen-11(10H)-one]	55.1	1.38	80.6
COC(=O)CNC(=O)C1c2c[nH]c3c(=O)n(C)cc(c23)-c2cc(CS(C)(=O)=O)ccc2N1c1ccc(F)cc1F (stereo not drawn) [Example 155, methyl 2-(4-(2,4-difluorophenyl)-10-methyl-7-((methylsulfonyl)methyl)-11-oxo-3,4,10,11-tetrahydro-1H-1,4,10-triazadibenzo[cd,f]azulene-3-carboxamido)acetate]	42.7	47.8	349
Cn1cc2c3c(c[nH]c3c1=O)C(C(=O)NCCc1ccccc1)N(c1ccc(F)cc1F)c1ccc(CS(C)(=O)=O)cc1-2 (stereo not drawn) [Example 156, 4-(2,4-difluorophenyl)-10-methyl-7-((methylsulfonyl)methyl)-11-oxo-N-phenethyl-3,4,10,11-tetrahydro-1H-1,4,10-triazadibenzo[cd,f]azulene-3-carboxamide]	46.8	42.1	214
CCCCNC(=O)C1c2c[nH]c3c(=O)n(C)cc(c23)-c2cc(CS(C)(=O)=O)ccc2N1c1ccc(F)cc1F (stereo not drawn) [Example 157, N-butyl-4-(2,4-difluorophenyl)-10-methyl-7-((methylsulfonyl)methyl)-11-oxo-3,4,10,11-tetrahydro-1H-1,4,10-triazadibenzo[cd,f]azulene-3-carboxamide]	39.6	23.9	77.4
CC(C)CNC(=O)C1c2c[nH]c3c(=O)n(C)cc(c23)-c2cc(CS(C)(=O)=O)ccc2N1c1ccc(F)cc1F (stereo not drawn) [Example 161, 4-(2,4-difluorophenyl)-N-isobutyl-10-methyl-7-((methylsulfonyl)methyl)-11-oxo-3,4,10,11-tetrahydro-1H-1,4,10-triazadibenzo[cd,f]azulene-3-carboxamide]	32.1	21.4	41.6
Cn1cc2c3c(c[nH]c3c1=O)C(C(=O)NCC1CC1)N(c1ccc(F)cc1F)c1ccc(CS(C)(=O)=O)cc1-2 (stereo not drawn) [Example 164, N-(cyclopropylmethyl)-4-(2,4-difluorophenyl)-10-methyl-7-((methylsulfonyl)methyl)-11-oxo-3,4,10,11-tetrahydro-1H-1,4,10-triazadibenzo[cd,f]azulene-3-carboxamide]	41.7	30	72.5
Cn1cc2c3c(c[nH]c3c1=O)CN(S(=O)(=O)C1CC1)c1ccc(CS(C)(=O)=O)cc1-2 [Example 172, 4-(cyclopropylsulfonyl)-10-methyl-7-((methylsulfonyl)methyl)-3,4-dihydro-1H-1,4,10-triazadibenzo[cd,f]azulen-11(10H)-one]	57.8	12.8	551
CNCCCC1c2c[nH]c3c(=O)n(C)cc(c23)-c2cc(CS(C)(=O)=O)ccc2N1c1ccc(F)cc1F (stereo not drawn) [Example 174, 4-(2,4-difluorophenyl)-10-methyl-3-(3-(methylamino)propyl)-7-((methylsulfonyl)methyl)-3,4-dihydro-1H-1,4,10-triazadibenzo[cd,f]azulen-11(10H)-one]	12.6	1.53	239
Cn1cc2c3c(c[nH]c3c1=O)CN(CC(C)(C)CN1CCCC1)c1ccc(CS(C)(=O)=O)cc1-2 [Example 178]	4.36	4.38	123

More lines, now with the values ahead:

Ki (BRD4 (BDI_K57-E168)) [nM]	Ki (BRD4 (BDII_E352-M457)) [nM]	EC50 [1] [nM]	SMILES
11.4	2.14	510	Cn1cc2c3c(c[nH]c3c1=O)C(CNC(=O)CNC(=O)OC(C)(C)C)N(c1ccc(F)cc1F)c1ccc(CS(C)(=O)=O)cc1-2 (stereo not drawn) [Example 135, tert-butyl (2-(((4-(2,4-difluorophenyl)-10-methyl-7-((methylsulfonyl)methyl)-11-oxo-3,4,10,11-tetrahydro-1H-1,4,10-triazadibenzo[cd,f]azulen-3-yl)methyl)amino)-2-oxoethyl)carbamate]
9.99	2.24	936	Cn1cc2c3c(c[nH]c3c1=O)C(CCC(O)CO)N(c1ccc(F)cc1F)c1ccc(CS(C)(=O)=O)cc1-2 (stereo not drawn) [Example 140, 4-(2,4-difluorophenyl)-3-(3,4-dihydroxybutyl)-10-methyl-7-((methylsulfonyl)methyl)-3,4-dihydro-1H-1,4,10-triazadibenzo[cd,f]azulen-11(10H)-one]
8.61	0.6	51.8	Cn1cc2c3c(c[nH]c3c1=O)C(CCCO)N(c1ccc(F)cc1F)c1ccc(CS(C)(=O)=O)cc1-2 (stereo not drawn) [Example 142, 4-(2,4-difluorophenyl)-3-(3-hydroxypropyl)-10-methyl-7-((methylsulfonyl)methyl)-3,4-dihydro-1H-1,4,10-triazadibenzo[cd,f]azulen-11(10H)-one]
1.42	17	124	CN1CCN(Cc2[nH]c3c(=O)n(C)cc4c3c2CN(c2ccc(Cl)cc2)c2ccccc2-4)CC1 [Example 146, 4-(4-chlorophenyl)-10-methyl-2-((4-methylpiperazin-1-yl)methyl)-3,4-dihydro-1H-1,4,10-triazadibenzo[cd,f]azulen-11(10H)-one]
7.02	0.97	20.3	COCCCC1c2c[nH]c3c(=O)n(C)cc(c23)-c2cc(CS(C)(=O)=O)ccc2N1c1ccc(F)cc1F (stereo not drawn) [Example 147, 4-(2,4-difluorophenyl)-3-(3-methoxypropyl)-10-methyl-7-((methylsulfonyl)methyl)-3,4-dihydro-1H-1,4,10-triazadibenzo[cd,f]azulen-11(10H)-one]
6.77	0.54	31.9	CCOCCCC1c2c[nH]c3c(=O)n(C)cc(c23)-c2cc(CS(C)(=O)=O)ccc2N1c1ccc(F)cc1F (stereo not drawn) [Example 148, 4-(2,4-difluorophenyl)-3-(3-ethoxypropyl)-10-methyl-7-((methylsulfonyl)methyl)-3,4-dihydro-1H-1,4,10-triazadibenzo[cd,f]azulen-11(10H)-one]
12.4	4.67	69.9	Cn1cc2c3c(c[nH]c3c1=O)CN(C(=O)CC(C)(C)C)c1c(F)cc(F)cc1-2 [Example 169, 4-(3,3-dimethylbutanoyl)-5,7-difluoro-10-methyl-3,4-dihydro-1H-1,4,10-triazadibenzo[cd,f]azulen-11(10H)-one]
7.07	25.2	57.6	Cn1cc2c3c(c[nH]c3c1=O)CN(C1CCC(NC(=O)OC(C)(C)C)CC1)c1ccc(S(C)(=O)=O)cc1-2 (stereo not drawn) [Example 170, tert-butyl ((trans)-4-(10-methyl-7-(methylsulfonyl)-11-oxo-10,11-dihydro-1H-1,4,10-triazadibenzo[cd,f]azulen-4(3H)-yl)cyclohexyl)carbamate]
1.01	3.55	14.2	CN1CCN(Cc2[nH]c3c(=O)n(C)cc4c3c2CN(c2ccc(Cl)cc2)c2ccc(CS(C)(=O)=O)cc2-4)CC1 [Example 176, 4-(4-chlorophenyl)-10-methyl-2-((4-methylpiperazin-1-yl)methyl)-7-((methylsulfonyl)methyl)-3,4-dihydro-1H-1,4,10-triazadibenzo[cd,f]azulen-11(10H)-one]
2.02	1.27	3.72	Cn1cc2c3c(c[nH]c3c1=O)CN(c1ccc(F)cc1)c1ccc(CC#N)cc1-2 [Example 177, 2-(4-(4-fluorophenyl)-10-methyl-11-oxo-3,4,10,11-tetrahydro-1H-1,4,10-triazadibenzo[cd,f]azulen-7-yl)acetonitrile]

Source: patent US10035800B2 (AbbVie Inc., priority 2013, dated 2018)
